Data set [1] has as its system Mtb H37Rv in murine bone marrow-derived macrophages. Kind of data set: in vitro antitubercular activity in infected murine bone marrow-derived macrophages. The settings on record: primary BMDM infected with H37Rv; doses 1 and 0.1 μg/mL. The format is cell-based, Mycobacterium tuberculosis.
The test system of data set [2] is mycobacterial ATP synthase. Details: method as in PMID 20521931. As to conditions: selectivity; cited from earlier work.
Another data set concerns H37Rv strain of Mtb. Also on record: method as in PMID 22155815. As to conditions: cited from earlier work.
Details of data set [3]: method as in PMID 35112802. The settings on record: TargoSphere platform; cited from earlier work.
The conditions of data set [4]: estimated; 25 °C; cited from earlier work.
For data set [5] the following is noted: estimated; cited from earlier work.
For data set [6] the following is noted: cited from earlier work.
For the next data set, the system named is mycobacteria. As to conditions: cited from earlier work.
On the set-up of data set [7]: method as in PMID 22155815, PMID 34370588. As to conditions: in vitro; cited from earlier work.
On the set-up of data set [8]: method as in PMID 22155815. The settings on record: oral route; cited from earlier work.
Where [9] appears, read: coadministration with high-fat meals.

Values after ≈ are worked out from the molar mass of the structure shown.

One may read the logP as a log measure of how a compound divides between an organic and an aqueous phase.

As for `COc1nc2ccc(Br)cc2cc1[C@@H](c1ccccc1)[C@@](O)(CCN(C)C)c1cccc2ccccc12` [BDQ, Bedaquiline], the “reduction in CFU/mL” value in [1] is listed as “significant reductions in CFU/mL”. Moreover, in data set [2], the “higher affinity for mycobacterial ATP synthase versus eukaryotic ATP synthase” value is > 20,000. In the data set with H37Rv strain of Mtb, the “minimum bactericidal concentration (MBC)” value was 0.3 µg/mL (≈ 0.54 µM) and the “minimum inhibitory concentration (MIC)” value is 0.06 µg/mL (≈ 0.108 µM). Also, the loading capacity in data set [3] is reported as 5–7 % of the total mass. Besides, the “solubility in aqueous media” value in data set [4] was 2 ng/mL (≈ 0.0036 µM). The logP in data set [5] is reported as 7.74. In addition, in [6] (administered orally), the bioavailability entry is “high bioavailability” and the median tmax is approximately 5 h. Also, in data set [6] (setting [9]), the “increase of AUC with food” value is recorded as 2 fold and the “increase of Cmax with food” value was 2 fold. Also, in [6] (in vivo), the protein binding is listed as more than 99%, the terminal elimination half-life is on record as 4–5 months and the volume of distribution is given as 164 L.
`C[C@H]1COc2c(N3CCN(C)CC3)c(F)cc3c(=O)c(C(=O)O)cn1c23` [levofloxacin]: the encapsulation efficiency in data set [3] was 66–80%.
Regarding `CNCCC(O)(c1cccc2ccccc12)C(c1ccccc1)c1cc2cc(Br)ccc2nc1OC` (stereo not drawn) [M2, N-desmethyl-bedaquiline], the “antimycobacterial activity, fold lower than BDQ” value in the data set on mycobacteria is 4–6 fold. Also, in data set [7], the cytotoxicity and phospholipidogenesis result was “higher cytotoxicity and phospholipidogenesis”. For the same compound, the “AUCLung:AUCplasma ratio” value in [8] was 100–200.

(Values after PMC11406518, “Intranasal Administration of Bedaquiline-Loaded Fucosylated Liposomes Provides Anti-Tubercular Activity while Reducing the Potential for Systemic Side Effects” (ACS Infectious Diseases, 2024).)
